Data: PMC5431342, “Discovery of an enzyme and substrate selective inhibitor of ADAM10 using an exosite-binding glycosylated substrate” (Scientific Reports, 2016)

Tested on: A549 cells
Test: Wound closure assay, A549
Type: cell-based
Conditions: A549, 10 µM
Procedure: For live-cell analysis of scratch-induced wound closure, 2.5 × 10^4 MDA-MB-231 and A549 cells per well were seeded in collagen G (40 µg/mL) (Biochrom AG, Germany) coated 96-well plates near confluence and allowed to grow overnight in standard medium (DMEM supplemented with 10% FBS and 1% P/S). At confluence, cells were pretreated 2 h with mitomycin (10 µg/mL) (Medac, Germany) to block cell proliferation and washed with standard media. Afterwards, cells were incubated in the presence of inhibitor at the indicated concentrations or DMSO (0.1% vehicle). Subsequently, a defined scratch (wound width between 642–767 µm) was performed in each well using the certified Essen Bioscience automated 96-wound maker^TM (Essen Biosciences, Hertfordshire, UK) for 96 well-plates. The medium was removed and 100 µL standard medium were added to the wells containing either inhibitor or DMSO. The closure of the wounded area was monitored using the IncuCyte ZOOM system by taking images of each well every 2 h over a period of 24 h. The reduction of wound width was determined over time using the IncuCyte ZOOM microscope software 2014A. Data were expressed as percentage of wound closure after 8 h.

COc1cccc(C(=O)NNC(=O)C(=O)Nc2ccc(C)c(Cl)c2)c1 [CID 3117694]
effect on wound healing: significantly decreased wound healing
